Results: article PMC10044245, “Comparative Evaluation of Existing and Rationally Designed Novel Antimicrobial Peptides for Treatment of Skin and Soft Tissue Infections” (Antibiotics, 2023)
≈ marks a conversion by molar mass, not a printed value. Where a SMILES comes first, the peptide text is derived from it.

Legend:
[1] = system: BALB/c 3T3 murine fibroblast cell line; experiment: Cytotoxicity, neutral red uptake assay; type: cell-based; conditions: for IC50, viability of Balb/c 3T3 cells: 48 h
Source text: The BALB/c 3T3 murine fibroblast cell line was obtained from ATCC (American Type Culture Collection, Manassas, VA, USA). Primary human dermal fibroblasts were isolated by enzymatic digestion from skin biopsies in the Laboratory of Bioanalytical and Biodosimetry Methods, University of Latvia, in accordance with the approval of the Committee of Research Ethics of the Institute of Cardiology and Regenerative Medicine, University of Latvia. Cells were propagated in DMEM medium (Sigma, Irvine, UK), supplemented with 1% penicillin (100 U/mL)–streptomycin (100 μg/mL), and 10% calf serum (Sigma, St. Louis, MO, USA) for Balb/c 3T3 cell line and fetal bovine serum (Sigma, St. Louis, MO, USA) for primary dermal fibroblasts. All cultivations were performed in a humidified 5% CO2 atmosphere at 37 °C.
The cytotoxicity of the peptides was tested in the BALB/c3T3 cell line and primary dermal fibroblasts by the neutral red (NR) uptake assay. Cells were seeded in 96-well plates at a density of 5 × 10^3 cells per well. After 24 h of incubation, peptides in a concentration range of 3.9 to 500 μg/mL were added. Dilutions were made in a cell cultivation medium. Cultivation in the presence of extracts was performed for 48 h. Afterwards, plates were washed with phosphate-buffered saline (PBS) (Sigma, Irvine, UK), and a 25 µg/mL NR solution (Sigma, Irvine, UK) diluted in 5%-fetal-calf-serum-containing-media was added. After 3 h, incubation in a humidified 5% CO2 atmosphere at 37 °C, the plate was washed with PBS, and the NR taken up by viable cells was extracted using desorbing fixative (50% ethanol/1% acetic acid/49% water). Absorbance at 540 nm was measured using a microplate reader Tecan Infinite® 200 PRO (Tecan Group Ltd., Mannedorf, Switzerland). Cytotoxicity was expressed as a concentration-dependent reduction in the uptake of NR, compared to the untreated controls and calculated using the following equation: Cell viability (%)=Abs540nm(treatment)−Abs540nm(background)/Abs540nm(untreated control)−Abs540nm(background)×100%

P. aeruginosa = experiment: microbe, parasite or virus in culture; type: cell-based, Pseudomonas aeruginosa; conditions: for MIC: Pseudomonas aeruginosa, 96-well plate, serial dilutions, 32 °C, 13–18 h, 200 rpm, OD 550 nm
Procedure: (§1) Quantification of the antimicrobial resistance against various AMPs was carried out by measuring the bacterial growth in the presence of peptides at serial dilutes in 96 well plates in a microplate (96-well plate) reader Infinite® M200 PRO Multimode Microplate Reader (Tecan, Maennedorf, Switzerland) according to our recent reports. All bacterial strains were incubated at 32 °C for 13–18 h at 200 rpm. Optical density measurements (λ = 550 nm) were taken automatically at 10 min intervals. Antimicrobial resistance activity was quantified as the minimum inhibitory concentration (MIC)—the lowest concentration of a peptide which prevents growth of bacterial cells.

S. aureus = experiment: microbe, parasite or virus in culture; type: cell-based, Staphylococcus aureus; conditions: for MIC: Staphylococcus aureus, 96-well plate, serial dilutions, 32 °C, 13–18 h, 200 rpm, OD 550 nm
Procedure: as §1

K. pneumonia = experiment: microbe, parasite or virus in culture; type: cell-based, Klebsiella pneumoniae; conditions: for MIC: Klebsiella pneumoniae, 96-well plate, serial dilutions, 32 °C, 13–18 h, 200 rpm, OD 550 nm
Procedure: as §1

C. acnes = experiment: microbe, parasite or virus in culture; type: cell-based, Cutibacterium acnes; conditions: for MIC: Cutibacterium acnes, 96-well plate, serial dilutions, 32 °C, 13–18 h, 200 rpm, OD 550 nm
Procedure: as §1

E. faecium = experiment: microbe, parasite or virus in culture; type: cell-based, Enterococcus faecium
Procedure: as §1

E. coli = experiment: microbe, parasite or virus in culture; type: cell-based, Escherichia coli; conditions: for MIC: Escherichia coli, 96-well plate, serial dilutions, 32 °C, 13–18 h, 200 rpm, OD 550 nm, lowest concentration preventing growth
Procedure: as §1

SMILES | MIC P. aeruginosa (P. aeruginosa) [µg/mL] | MIC S. aureus (S. aureus) [µg/mL] | MIC K. pneumonia (K. pneumonia) [µg/mL] | MIC C. acnes (C. acnes) [µg/mL] | MIC E. faecium (E. faecium) [µg/mL] | MIC E. coli (E. coli) [µg/mL] | MIC (S. aureus) [µg/mL] | MIC (K. pneumonia) [µg/mL] | MIC (C. acnes) [µg/mL] | MIC (E. coli) [µg/mL] | MIC (P. aeruginosa) [µg/mL] | MIC (E. faecium; Enterococcus faecium, 96-well plate, serial dilutions, 32 °C, 13–18 h, 200 rpm, OD 550 nm) [µg/mL] | IC50, viability of Balb/c 3T3 cells [1] [µg/mL] | reduction of cell viability ([1]; Balb/c 3T3, at 500 μg/mL) [%] | Therapeutic Index P. aeruginosa (P. aeruginosa) | Therapeutic Index S. aureus (S. aureus) | Therapeutic Index K. pneumonia (K. pneumonia) | Therapeutic Index C. acnes (C. acnes) | Therapeutic Index E. faecium (E. faecium) | Therapeutic Index E. coli (E. coli)
CC(C)[C@H](NC(=O)[C@H](Cc1ccc(O)cc1)NC(=O)[C@H](Cc1c[nH]c2ccccc12)NC(=O)[C@H](CS)NC(=O)[C@H](Cc1ccccc1)NC(=O)CN)C(=O)N[C@@H](CS)C(=O)N[C@@H](C)C(=O)N[C@@H](CCCNC(=N)N)C(=O)N[C@@H](CCCNC(=N)N)C(=O)N[C@@H](CC(N)=O)C(=O)NCC(=O)N[C@@H](C)C(=O)N[C@@H](CCCNC(=N)N)C(=O)N[C@H](C(=O)N[C@@H](CS)C(=O)N[C@@H](Cc1ccc(O)cc1)C(=O)N[C@@H](CCCNC(=N)N)C(=O)N[C@@H](CCCNC(=N)N)C(=O)N[C@@H](CS)C(=O)N[C@@H](CC(N)=O)C(=O)O)C(C)C [AA139, reference compound] (H-GFCWYVCARRNGARVCYRRCN-OH; N-terminus and C-terminus assumed) | 16.0 (≈ 6.26 µM) | 8.0 (≈ 3.13 µM) | 8.0 (≈ 3.13 µM) | 63.0 (≈ 24.7 µM) | 16.0 (≈ 6.26 µM) | 4.0 (≈ 1.57 µM) |  |  |  |  |  |  | 627.5 | 36 | 39.3 | 78.5 | 78.5 | 10.0 | 39.3 | 157.0
CC[C@H]1OC(=O)[C@H](C)[C@@H](O[C@H]2C[C@@](C)(OC)[C@@H](O)[C@H](C)O2)[C@H](C)[C@@H](O[C@@H]2O[C@H](C)C[C@H](N(C)C)[C@H]2O)[C@](C)(O)C[C@@H](C)CN(C)[C@H](C)[C@@H](O)[C@]1(C)O [Azythromycin, Azithromycin dihydrate, reference compound] |  |  |  |  |  |  | 0.5 | 8 |  |  |  |  |  |  |  |  |  |  |  | 
O=C(OOC(=O)c1ccccc1)c1ccccc1 [Benzoyl peroxide, reference compound] |  |  |  |  |  |  | 1250 (≈ 5160 µM) |  | 80 (≈ 330 µM) | 31 (≈ 128 µM) |  |  |  |  |  |  |  |  |  | 
[H]/N=C(\N/C(=N/[H])NCCCCCCNC(=N)NC(=N)Nc1ccc(Cl)cc1)Nc1ccc(Cl)cc1 [Chlorhexidine, chlorhexidine, reference compound] |  |  |  |  |  |  | 1 (≈ 1.98 µM) |  | 1 (≈ 1.98 µM) | 16 (≈ 31.7 µM) | 1 (≈ 1.98 µM) |  |  |  |  |  |  |  |  | 
CC[C@H]1OC(=O)[C@H](C)[C@@H](O[C@H]2C[C@@](C)(OC)[C@@H](O)[C@H](C)O2)[C@H](C)[C@@H](O[C@@H]2O[C@H](C)C[C@H](N(C)C)[C@H]2O)[C@](C)(OC)C[C@@H](C)C(=O)[C@H](C)[C@@H](O)[C@]1(C)O [Claritromycin, clarithromycin, reference compound] |  |  |  |  |  |  | 0.25 (≈ 0.334 µM) | 64 (≈ 85.6 µM) |  |  |  |  |  |  |  |  |  |  |  | 
CNC(C)C1CCC(N)C(OC2C(N)CC(N)C(OC3OCC(C)(O)C(NC)C3O)C2O)O1 (centres unmarked) [Gentamicin, gentamicin, reference compound] |  |  |  |  |  |  | 0.25 (≈ 0.523 µM) | 0.25 (≈ 0.523 µM) |  | 1 (≈ 2.09 µM) | 0.25 (≈ 0.523 µM) | 1 (≈ 2.09 µM) |  |  |  |  |  |  |  | 

Further lines, with some results ahead:

MIC P. aeruginosa (P. aeruginosa) [µg/mL] | MIC S. aureus (S. aureus) [µg/mL] | MIC K. pneumonia (K. pneumonia) [µg/mL] | MIC C. acnes (C. acnes) [µg/mL] | MIC E. faecium (E. faecium) [µg/mL] | MIC E. coli (E. coli) [µg/mL] | MIC (S. aureus) [µg/mL] | MIC (K. pneumonia) [µg/mL] | MIC (C. acnes) [µg/mL] | MIC (E. coli) [µg/mL] | MIC (P. aeruginosa) [µg/mL] | MIC (E. faecium; Enterococcus faecium, 96-well plate, serial dilutions, 32 °C, 13–18 h, 200 rpm, OD 550 nm) [µg/mL] | SMILES | IC50, viability of Balb/c 3T3 cells [1] [µg/mL] | reduction of cell viability ([1]; Balb/c 3T3, at 500 μg/mL) [%] | Therapeutic Index P. aeruginosa (P. aeruginosa) | Therapeutic Index S. aureus (S. aureus) | Therapeutic Index K. pneumonia (K. pneumonia) | Therapeutic Index C. acnes (C. acnes) | Therapeutic Index E. faecium (E. faecium) | Therapeutic Index E. coli (E. coli)
16.0 (≈ 6.89 µM) | 2.0 (≈ 0.862 µM) | 16.0 (≈ 6.89 µM) | 16.0 (≈ 6.89 µM) | 4.0 (≈ 1.72 µM) | 31.0 (≈ 13.4 µM) |  |  |  |  |  |  | CC[C@H](C)[C@H](NC(=O)[C@H](CCCNC(=N)N)NC(=O)[C@H](CCCCN)NC(=O)[C@H](C)NC(=O)[C@@H](NC(=O)[C@@H](N)CCCCN)[C@@H](C)CC)C(=O)N[C@@H](Cc1c[nH]c2ccccc12)C(=O)N[C@@H](CCCCN)C(=O)N[C@@H](CCCNC(=N)N)C(=O)N[C@H](C(=O)N[C@@H](Cc1c[nH]c2ccccc12)C(=O)N[C@@H](CCCCN)C(=O)N[C@H](C(=O)N[C@@H](CC(C)C)C(=O)N[C@@H](CCCNC(=N)N)C(=O)N[C@@H](CCCNC(=N)N)C(=O)N[C@@H](CCCNC(=N)N)C(=O)O)[C@@H](C)CC)[C@@H](C)CC [PA13, reference compound] (H-KIAKRIWKRIWKILRRR-OH) | 262 |  | 16.4 | 131.0 | 16.4 | 16.4 | 65.5 | 8.5
4.0 (≈ 1.5 µM) | 8.0 (≈ 2.99 µM) | 31.0 (≈ 11.6 µM) | 0.5 (≈ 0.187 µM) | 16.0 (≈ 5.99 µM) | 8.0 (≈ 2.99 µM) |  |  |  |  |  |  | CC[C@H](C)[C@H](N)C(=O)N[C@@H](C)C(=O)N[C@@H](CCCCN)C(=O)N[C@@H](CCCCN)C(=O)N[C@@H](Cc1ccccc1)C(=O)N[C@@H](Cc1c[nH]c2ccccc12)C(=O)N[C@@H](CCCCN)C(=O)N[C@@H](CCCCN)C(=O)N[C@@H](Cc1ccccc1)C(=O)N[C@@H](Cc1c[nH]c2ccccc12)C(=O)N[C@@H](CCCCN)C(=O)N[C@@H](Cc1ccccc1)C(=O)N[C@@H](Cc1c[nH]c2ccccc12)C(=O)N[C@@H](CCCCN)C(=O)N[C@H](C(=O)N[C@@H](Cc1ccccc1)C(=O)N[C@@H](CCCCN)C(=O)N[C@@H](CCCCN)C(=O)N[C@H](C(=O)N[C@@H](C)C(=O)O)[C@@H](C)CC)[C@@H](C)CC [Peptide R12] (H-IAKKFWKKFWKFWKIFKKIA-OH) | 16.18 |  | 4.0 | 2.0 | 0.5 | 32.0 | 1.0 | 2.0
4.0 (≈ 1.51 µM) | 4.0 (≈ 1.51 µM) | 8.0 (≈ 3.03 µM) | 0.3 (≈ 0.114 µM) | 16.0 (≈ 6.06 µM) |  |  |  |  |  |  |  | CC[C@H](C)[C@H](N)C(=O)N[C@@H](C)C(=O)N[C@@H](CCCCN)C(=O)N[C@@H](CCCCN)C(=O)N[C@@H](Cc1ccccc1)C(=O)N[C@@H](Cc1c[nH]c2ccccc12)C(=O)N1CCC[C@H]1C(=O)N[C@@H](CCCCN)C(=O)N[C@@H](Cc1ccccc1)C(=O)N[C@@H](Cc1c[nH]c2ccccc12)C(=O)N[C@@H](CCCCN)C(=O)N[C@@H](Cc1ccccc1)C(=O)N[C@@H](Cc1c[nH]c2ccccc12)C(=O)N[C@@H](CCCCN)C(=O)N[C@H](C(=O)N[C@@H](Cc1ccccc1)C(=O)N[C@@H](CCCCN)C(=O)N[C@@H](CCCCN)C(=O)N[C@H](C(=O)N[C@@H](C)C(=O)O)[C@@H](C)CC)[C@@H](C)CC [Peptide R13] (H-IAKKFWPKFWKFWKIFKKIA-OH) | 79.37 |  | 19.8 | 19.8 | 9.9 | 263.3 | 4.9 | 19.8
